Source: ChEMBL document CHEMBL1201862, “PubChem BioAssay data set” (2004)
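Briefly, cells in 96-well plates were exposed to five compound concentrations for 48 h, and endpoints were estimated by linear interpolation. Here, GI50 denotes the concentration required for 50% inhibition of growth.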 Activity calls are given as the source filed them. No stated cut-off is given here; in the data, active = GI50 up to about 1.1 µM and inactive = higher.

Columns and labels:
Experiment in all cases: NCI anticancer screen, dose series, 48 h
SK-MEL-28 = test system: SK-MEL-28
TK-10 = test system: TK-10
HCC 2998 = test system: HCC 2998
PC-3 = test system: PC-3
SNB-19 = test system: SNB-19
RPMI-8226 = test system: RPMI-8226
NCI-H226 = test system: NCI-H226
SK-MEL-5 = test system: SK-MEL-5
SF-268 = test system: SF-268
NCI-H23 = test system: NCI-H23
HOP-92 = test system: HOP-92
EKVX = test system: EKVX
UACC-62 = test system: UACC-62
CAKI-1 = test system: CAKI-1
MOLT-4 = test system: MOLT-4
UO-31 = test system: UO-31
Hs-578T = test system: Hs-578T
SW-620 = test system: SW-620
SK-OV-3 = test system: SK-OV-3
U-251 = test system: U-251

SMILES	GI50 (SK-MEL-28)	GI50 (TK-10)	GI50 (HCC 2998)	GI50 (PC-3)	GI50 (SNB-19)	GI50 (RPMI-8226)	GI50 (NCI-H226)	GI50 (SK-MEL-5)	GI50 (SF-268)	GI50 (NCI-H23)	GI50 (HOP-92)	GI50 (EKVX)	GI50 (UACC-62)	GI50 (CAKI-1)	GI50 (MOLT-4)	GI50 (UO-31)	GI50 (Hs-578T)	GI50 (SW-620)	GI50 (SK-OV-3)	GI50 (U-251)
c1ccc(CSc2nnc3c4ccccc4c4ccccc4c3n2)cc1	> 100 µM (inactive)	26.9 µM (inactive)	51.1 µM (inactive)	64.9 µM (inactive)	33.2 µM (inactive)	48 µM (inactive)	45.6 µM (inactive)	> 100 µM (inactive)	19.1 µM (inactive)	48.2 µM (inactive)	21.2 µM (inactive)	27.2 µM (inactive)	46 µM (inactive)	78.9 µM (inactive)	39.1 µM (inactive)	> 57.7 µM (inactive)	36.2 µM (inactive)	38.2 µM (inactive)	17.7 µM (inactive)	33.3 µM (inactive)
O=C1C=CC(=O)c2c1cc([N+](=O)[O-])c1ccoc21	20.1 µM (inactive)	2.18 µM (inactive)	19.5 µM (inactive)	15.6 µM (inactive)	21.5 µM (inactive)	4.37 µM (inactive)	26.6 µM (inactive)	16.4 µM (inactive)	26.2 µM (inactive)	22.6 µM (inactive)	1.96 µM (inactive)	17.8 µM (inactive)	15.8 µM (inactive)	1.6 µM (inactive)	0.942 µM (active)	3.01 µM (inactive)	28.1 µM (inactive)	2.36 µM (inactive)	20.4 µM (inactive)	18.5 µM (inactive)
Clc1ccc(Nc2nn3c(CCCCCCCCc4nnc5sc(Nc6ccc(Cl)cc6)nn45)nnc3s2)cc1	> 100 µM (inactive)	29.4 µM (inactive)	> 100 µM (inactive)	> 100 µM (inactive)	25.1 µM (inactive)	> 100 µM (inactive)	> 100 µM (inactive)	> 100 µM (inactive)	> 100 µM (inactive)	> 100 µM (inactive)	> 100 µM (inactive)	> 100 µM (inactive)	> 100 µM (inactive)	> 100 µM (inactive)	90.6 µM (inactive)	> 100 µM (inactive)	> 100 µM (inactive)	> 100 µM (inactive)	> 100 µM (inactive)	37 µM (inactive)
O=C(SC1=NCCN1)c1cccc2ccccc12	96.2 µM (inactive)	> 100 µM (inactive)	> 100 µM (inactive)	42 µM (inactive)	> 100 µM (inactive)	27.8 µM (inactive)	32.3 µM (inactive)	66.5 µM (inactive)	> 100 µM (inactive)	63.5 µM (inactive)	42.1 µM (inactive)	28.3 µM (inactive)	> 100 µM (inactive)	> 100 µM (inactive)	16.9 µM (inactive)	42.9 µM (inactive)	81.3 µM (inactive)	33.8 µM (inactive)	44.5 µM (inactive)	45.5 µM (inactive)
CC(=O)NNc1nc(C)c(C(/C=C/c2cccc([N+](=O)[O-])c2)=N/NC(=S)NN)s1	> 100 µM (inactive)	> 100 µM (inactive)	> 100 µM (inactive)	> 100 µM (inactive)	> 100 µM (inactive)	> 100 µM (inactive)	> 100 µM (inactive)	> 100 µM (inactive)	> 100 µM (inactive)	> 100 µM (inactive)	> 100 µM (inactive)	52.1 µM (inactive)	> 100 µM (inactive)	> 100 µM (inactive)	> 100 µM (inactive)	> 100 µM (inactive)	> 100 µM (inactive)	> 100 µM (inactive)	> 100 µM (inactive)	> 100 µM (inactive)
CC(C)(C)c1cc(C(=O)/C=C/c2ccc3c(c2)CCO3)cc(C(C)(C)C)c1O	> 83 µM (inactive)	1.31 µM (inactive)	1.89 µM (inactive)	0.891 µM (active)	2.94 µM (inactive)	0.984 µM (active)	2.24 µM (inactive)	0.908 µM (active)	2.58 µM (inactive)	1.14 µM (inactive)	16.2 µM (inactive)	0.729 µM (active)	1.16 µM (inactive)	0.724 µM (active)	2.42 µM (inactive)	1.2 µM (inactive)	1.32 µM (inactive)	1.13 µM (inactive)	1.64 µM (inactive)	0.94 µM (active)
C[N+](C)(C)CC(=O)N/N=C(\C(=O)NC1=C(Cl)C(=O)c2ccccc2C1=O)C(C#N)c1nc(-c2ccc([N+](=O)[O-])cc2)cs1 (stereo not given)	6.1 µM (inactive)	31 µM (inactive)	14.1 µM (inactive)	6.89 µM (inactive)	12.9 µM (inactive)	6.53 µM (inactive)	11.4 µM (inactive)	1.13 µM (inactive)	12.3 µM (inactive)	2.51 µM (inactive)	13 µM (inactive)	14.1 µM (inactive)	3.83 µM (inactive)	26.2 µM (inactive)	13.4 µM (inactive)	15.6 µM (inactive)	7.85 µM (inactive)	8.15 µM (inactive)	21.1 µM (inactive)	6.97 µM (inactive)
O=C1/C(=C/c2ccc3c(c2)OCO3)CCC1CN1CCOCC1 (stereo not given)	3.4 µM (inactive)	12.4 µM (inactive)	8.75 µM (inactive)	2.17 µM (inactive)	15.4 µM (inactive)	0.436 µM (active)	16.7 µM (inactive)	9.16 µM (inactive)	10.5 µM (inactive)	8.83 µM (inactive)	9.89 µM (inactive)	16.6 µM (inactive)	9.16 µM (inactive)	3.25 µM (inactive)	1.95 µM (inactive)	15.8 µM (inactive)	3.84 µM (inactive)	2.07 µM (inactive)	18.4 µM (inactive)	7.05 µM (inactive)
O=C(O)CP(=O)(O)O	> 100 µM (inactive)	> 100 µM (inactive)	> 100 µM (inactive)	> 100 µM (inactive)	> 100 µM (inactive)	> 100 µM (inactive)	> 100 µM (inactive)	> 100 µM (inactive)	> 100 µM (inactive)	> 100 µM (inactive)	> 100 µM (inactive)	> 100 µM (inactive)	> 100 µM (inactive)	> 100 µM (inactive)	> 100 µM (inactive)	> 100 µM (inactive)	> 100 µM (inactive)	> 100 µM (inactive)	> 100 µM (inactive)	> 100 µM (inactive)
CC(C)=CCC[C@](C)(O[C@@H]1O[C@H](CO)[C@@H](O)[C@H](O)[C@H]1O)[C@H]1CC[C@]2(C)[C@@H]1[C@H](O)C[C@@H]1[C@@]3(C)CC[C@@H](O)C(C)(C)[C@@H]3[C@@H](O[C@@H]3O[C@H](CO)[C@@H](O)[C@H](O)[C@H]3O)C[C@]12C.C[C@@H]1O[C@@H](O[C@H]2[C@H](O[C@H]3C[C@]4(C)[C@H](C[C@H](O)[C@@H]5[C@@H]([C@@]6(C)CC[C@H](C(C)(C)O)O6)CC[C@]54C)[C@@]4(C)CC[C@H](O)C(C)(C)[C@H]34)O[C@H](CO)[C@@H](O)[C@@H]2O)[C@H](O)[C@H](O)[C@H]1O	> 100 µM (inactive)	> 100 µM (inactive)	> 100 µM (inactive)	> 100 µM (inactive)	> 100 µM (inactive)	> 100 µM (inactive)	> 100 µM (inactive)	> 100 µM (inactive)	> 100 µM (inactive)	> 100 µM (inactive)	> 100 µM (inactive)	> 100 µM (inactive)	> 100 µM (inactive)	> 100 µM (inactive)	84.9 µM (inactive)	> 100 µM (inactive)	> 100 µM (inactive)	> 100 µM (inactive)	> 100 µM (inactive)	> 100 µM (inactive)
